The values below come from article PMC6881072, “The repositioning of epigenetic probes/inhibitors identifies new anti-schistosomal lead compounds and chemotherapeutic targets” (PLoS Neglected Tropical Diseases, 2019).

Where two headings read alike, the source gives them in different places. Where only a bound is given, the exact number is not on record here.

A short description of data set [1]: HepG2 cell cytotoxicity, MTT assay. It counts as cell-based, Human. Particulars: human, HepG2 cells, read-out: CC50 (HepG2) (95% Confidence Intervals). As to the method:
(§1) Human Hepatocyte Carcinoma (HepG2) cells (Sigma Aldrich, UK) were utilized to assess SGC epigenetic probe cell cytotoxicity in the application of the MTT (3-(4,5-dimethylthiazol-2-yl)-2,5-diphenyltetrazolium bromide) assay. Briefly, cells were passaged at 70–80% confluence and seeded (20,000 cells/ 50 μL per well) in a 96-well, black-sided, clear-bottomed falcon plate (Fisher Scientific, UK) with the final plate column (8 wells) being treated as a blank (media only). Following a 24 h incubation (5% CO2, 37°C, humidified), HepG2 cells were then treated with 50 μL of pre-warmed media (37°C) containing SGC EPs/EIs at 200 μM to 0.02 μM (final concentration 100 μM, 10 μM, 1 μM, 0.1 μM and 0.01 μM). Three positive (1% Triton X-100) and negative (1% DMSO) control wells per plate were additionally included.
(§2) After addition of compounds, each plate was then incubated for a further 20 h before application of MTT for assessment of overt compound cytotoxicity using the MTT assay. The MTT assay was read using the POLARstar Omega (BMG LabTech, UK) plate reader at an absorbance of 570 nm. CC50s were calculated in GraphPad Prism.
For orientation: Tetrazolium assays rely on reduction of a dye to a coloured formazan, in cell work by metabolically active cells.

The test system of data set [2] is HepG2 cells. Nature of the data set: HepG2 cell cytotoxicity, MTT assay. It counts as cell-based, Human. Particulars: 20 h, read-out: CC50 (HepG2) (95% Confidence Intervals). The protocol: as §1, §2
The conditions of data set [3]: cited from earlier work.
Data set [4] relates to in vitro laid eggs (IVLEs) of adult worm pairs. Kind of data set: Vitellocyte and egg volume quantification of in vitro laid eggs (LSCM). It counts as cell-based, Schistosoma mansoni. The settings on record: 0.2 μM, 72 h, n = 10 eggs. From the text:
Fluorescent microscopic images (10 eggs per treatment) were captured on a Leica TCS SP8 super resolution laser confocal microscope fitted with a 63 X (water immersion) objective using the Leica Application Suite X. Green (egg autofluorescence) fluorescence was visualised with an argon or diode-pumped, solid state (DPSS) laser at 488 nm. DAPI was visualised using a 405 nm blue diode laser. The number of vitellocytes (DAPI^+ cells) and overall volume (mapped by the green autofluorescence) for individual eggs were calculated using IMARIS 7.3 software (Bitplane).

Data set [5] concerns adult male and female schistosome pairs. Nature of the data set: In vitro adult schistosome screening (WHO/TDR motility, egg counts). It counts as cell-based, Schistosoma mansoni. The settings on record: for EC50: Schistosoma mansoni, motility. As to the method: In vitro screening was replicated three times on different dates to account for any biological variation. Briefly three adult worm pairs/well (48-well tissue culture plate format) were placed into DMEM (Gibco, Paisley, UK) supplemented with 10% (v/v) FCS (Gibco, Paisley, UK), 1% (v/v) L-glutamine (Gibco, Paisley, UK) and an antibiotic mixture (150 Units/ml penicillin and 150 μg/ml streptomycin; Gibco, UK). DMSO (0.5% negative control), AUR (10 μM concentration in 0.5% DMSO; positive control) and two-fold titrations of SGC compounds (50 μM– 6.25 μM or 50 μM– 0.05 μM; in 0.5% DMSO max) were added, and together, these adult worm/compound co-cultures were incubated at 37°C for 72 h in a humidified atmosphere containing 5% CO2. Following compound incubation, WHO/TDR readouts of adult worm motility, abundance of H3K36me2 (LLY-507 and BAY-598 treated worms only) in histone extracts and egg counts/well were recorded at 72 h.

Data set [6] concerns S. mansoni schistosomula. Nature of the data set: In vitro schistosomula screening (Roboworm platform), phenotype and motility. Particulars: for EC50: Schistosoma mansoni, two-fold titration 10 μM–0.625 μM, single replicate, approximate. It counts as cell-based, Schistosoma mansoni. The protocol:
Briefly, 384-well tissue culture plates (Perkin Elmer, cat 6007460), containing 20 μl of Basch medium, were wet-stamped using a Biomek NX^P liquid handling platform (Beckman Coulter, UK) with negative (0.625% dimethyl sulfoxide, DMSO) and positive controls (AUR and PZQ at 10 μM final concentration in 0.625% DMSO) as well as 37 SGC compounds (at 10 μM final concentration in 0.625% DMSO). […] To each pre-loaded well (single concentration or titration screens), a total of 100–120 mechanically transformed schistosomula (in 60 μl) were deposited via a WellMate (Thermo Scientific, UK). Schistosomula/compound co-cultures (80 μl in total) were then incubated at 37°C for 72 h in a humidified atmosphere containing 5% CO2. At 72 h, tissue culture plates (containing schistosomula/compound co-cultures) were imaged under the same conditions (37°C in a humidified atmosphere containing 5% CO2) using an ImageXpressXL high content imager (Molecular Devices, UK) with subsequent images processed for phenotype and motility as previously reported and successfully implemented by us at Aberystwyth University. Single point schistosomula screens (10 μM) were repeated two or three times whereas dose response titrations were performed once. Zˊ values obtained from all schistosomula screens ranged from 0.27–0.48 (mean = 0.40) for phenotype and 0.41–0.56 (mean = 0.48) for motility.

Data set [7] deals with adult schistosome pairs. Kind of data set: RNAi of adult schistosome pairs: motility and egg counts. It counts as cell-based, Schistosoma mansoni. The settings on record: 168 h (7 days post-treatment), vs siLuc. As to the method: (§3) Following the perfusion of 7 wks infected mice, adult worms were recovered and RNAi performed as previously described. Briefly, smp_000700 and non-specific luciferase siRNA duplexes were purchased from Sigma (siSmp_000700 = sense: GGUAAUCGGUCAUGUGUAU[dT][dT] and anti-sense: AUACACAUGACCGAUUACC[dT][dT]; siLuc = sense CUUACGCUGAGUACUUCGA[dT][dT] and anti-sense UCGAAGUACUCAGCGUAAG[dT][dT]) and used at a final concentration of 50 ng/μl. Mixed sex adult worm pairs (for knockdown assessment by quantitative reverse transcription PCR, qRT-PCR) were cultured at 37°C in DMEM supplemented with 10% FCS, 2 mM L-glutamine, […] HEPES (Sigma-Aldrich, UK), 100 Units/ml penicillin and 100 μg/ml streptomycin in an atmosphere of 5% CO2 with a 70% media exchange performed every 48 h. The experiment was replicated three times (21 worm pairs/replicate). Quantitative reverse transcription PCR (qRT-PCR) of smp_000700 abundance was performed at 48 h and adult worm motility as well as egg counts were quantified at 168 h. Levels of H3K36me2 detected in schistosome histone extracts were assessed at 72 h.

Data set [8] relates to H3K36me2. Kind of data set: H3K36me2 detection in adult worm histone extracts. It counts as cell-based, Schistosoma mansoni. Particulars: siRNA 50 ng/μl, adult worms, vs siLuc. As to the method: LLY-507 (6.25 μM), BAY-598 (25 μM) or siSmp_000700 treated male and female worms (alongside DMSO or siLuc controls; 21 individuals per condition) were homogenized with a TissueLyser (Qiagen) and total histones extracted using the EpiQuik^TM Total Histone Extraction Kit (Epigentek). Levels of H3K36me2 in adult histone extracts were measured using the EpiQuik^TM Global Di-Methyl Histone H3-K36 Quantification Kit (Fluorimetric, Epigentek). Technical duplicates of three biological replicates of each treatment were analysed according to the manufacturer’s instructions. Fluorescent readings (530EX/590EM nm) were obtained using a POLARstar Omega (BMG Labtech, UK) microtiter plate reader. Fluorescent values of the samples were corrected by subtracting the fluorescent readings of the blank (buffer only, provided in the kit). The mean of the adjusted control values (DMSO for LLY-507/BAY-598 treated worms and siLuc for siSmp_000700 treated worms) was set at 100% H3K36me2 and the standard deviation (SD) was calculated from the normalised values.

Data set [9] deals with smp_000700. Kind of data set: RNAi knockdown assessment by qRT-PCR. It counts as cell-based, Schistosoma mansoni. The settings on record: 48 h, vs siLuc. The protocol:
as §3
Following RNAi with siSmp_000700 and siLuc, mixed-sex adult worms were incubated for a total of 48 h before processing them for RNA isolation. […]

What is called CC50 is the concentration giving 50% cytotoxicity. The EC50 is the concentration at which the effect is half-maximal. As for `CCOC(=O)CCNc1cc(N2CCc3ccccc3CC2)nc(-c2ccccn2)n1` [GSK-J4, ethyl 3-[[2-pyridin-2-yl-6-(1,2,4,5-tetrahydro-3-benzazepin-3-yl)pyrimidin-4-yl]amino]propanoate], the CC50 at 20 h in data set [1] was over 50 µM. Besides, in data set [2], the CC50 is over 100 µM. Besides, the cell permeability entry in [3] is “cell-permeable”. Moreover, in data set [4], the “number of vitellocytes per egg (packaging into IVLEs)” value was “significantly inhibited the packaging”. Also, the overall egg volume result in [4] is reported as “no difference”. In addition, the “adult worm motility and IVLE production” value in data set [5] (3.13 μM and 6.25 μM, 72 h, vs DMSO) is “led to adult worm motility and IVLE deficiencies”. For the same molecule, the “SELECTIVITY INDEX Adult Females” value in [5] (CC50 HepG2 / adult female EC50) was found to be 8.78. In data set [5] (CC50 HepG2 / adult male EC50), the “SELECTIVITY INDEX Adult Males” value is 25.49. Further, the concentration giving a half-maximal response (EC50) is 11.4 µM in [5] (72 h, adult females, read-out: ADULT EC50 (95% Confidence Intervals) Females); 3.92 µM in data set [5] (72 h, adult males, read-out: ADULT EC50 (95% Confidence Intervals) Males); 6.04 µM in data set [6] (72 h, read-out: SCHISTOSOMULA EC50 Motility); 5.37 µM in data set [6] (72 h, read-out: SCHISTOSOMULA EC50 Phenotype). In addition, the “schistosomula phenotype by microscopic assessment” value in data set [6] (10 μM, 72 h) is “phenotypes comparable to auranofin”. In addition, the “SELECTIVITY INDEX Schistosomula Motility” value in [6] (CC50 HepG2 / schistosomula motility EC50) stood at 16.55. The “SELECTIVITY INDEX Schistosomula Phenotype” value in [6] (CC50 HepG2 / schistosomula phenotype EC50) amounted to 18.62.
For the molecule “siSmp_000700: siRNA duplex directed against smp_000700; sense GGUAAUCGGUCAUGUGUAU[dT][dT] (antisense AUACACAUGACCGAUUACC; 3' dTdT overhangs, further chemistry not given here)”, in data set [7], the “adult worm motility after RNAi” value is “significant reduction in adult worm motility” and the “egg production after RNAi” value is recorded as “egg production defects”. Moreover, in data set [8], the “reduction in H3K36me2” value is reported as 15%. Moreover, the “reduction of smp_000700 mRNA abundance (KD)” value in data set [9] is 66%.
